Measured values as given in ChEMBL document CHEMBL3758085, “Synthesis and cytotoxicity of thieno[2,3-b]quinoline-2-carboxamide and cycloalkyl[b]thieno[3,2-e]pyridine-2-carboxamide derivatives” (Bioorg Med Chem, 2016).

Legend:
[1] = Antiproliferative activity against human HCT116 cells assessed as cell growth at 1 uM incubated for 3 days by 3H-thymidine incorporation assay relative to control; format: functional; conditions: HCT-116, read-out: Activity
MDA-MB-468 [2] = assay: Antiproliferative activity against human MDA-MB-468 cells assessed as cell growth at 1 uM incubated for 3 days by 3H-thymidine incorporation assay relative to control; format: functional; conditions: read-out: Activity
MDA-MB-231 [3] = assay: Antiproliferative activity against human MDA-MB-231 cells assessed as cell growth at 1 uM incubated for 3 days by 3H-thymidine incorporation assay relative to control; format: functional; conditions: read-out: Activity
[4] = Antiproliferative activity against human HCT116 cells assessed as cell growth incubated for 3 days by 3H-thymidine incorporation assay relative to control; format: functional, cell-based; conditions: HCT-116
MDA-MB-468 [5] = assay: Antiproliferative activity against human MDA-MB-468 cells assessed as cell growth incubated for 3 days by 3H-thymidine incorporation assay relative to control; format: functional, cell-based
MDA-MB-231 [6] = assay: Antiproliferative activity against human MDA-MB-231 cells assessed as cell growth incubated for 3 days by 3H-thymidine incorporation assay relative to control; format: functional, cell-based
K562 = assay: Antiproliferative activity against human K562 cells assessed as cell growth incubated for 3 days by 3H-thymidine incorporation assay relative to control; format: functional, cell-based

| Compound | growth at 1 µM [1] [%] | growth at 1 µM (MDA-MB-468 [2]) [%] | growth at 1 µM (MDA-MB-231 [3]) [%] | IC50 [4] [nM] | IC50 (MDA-MB-468 [5]) [nM] | IC50 (MDA-MB-231 [6]) [nM] | IC50 (K562) [nM] |
| --- | --- | --- | --- | --- | --- | --- | --- |
| Nc1c(C(=O)Nc2cccc(Br)c2)sc2nc3c(cc12)CCC3 | 93 | 53 | 94 |  |  |  |  |
| COc1ccc2nc3sc(C(=O)Nc4cc(Cl)ccc4OC)c(N)c3cc2c1 | 100 | 104 | 86 |  |  |  |  |
| CC(=O)c1ccc(NC(=O)c2sc3nc4ccccc4cc3c2N)cc1 | 93 | 70 | 95 |  |  |  |  |
| Nc1c(C(=O)Nc2ccccc2F)sc2nc3c(cc12)CCCC3 | 84 | 48 | 92 |  |  |  |  |
| Nc1c(C(=O)Nc2ccc3ccccc3c2)sc2nc3c(cc12)CCCC3 | 100 | 76 | 120 |  |  |  |  |
| O=c1c2sc3ncccc3c2ncn1-c1ccccc1 | 96 | 101 | 107 |  |  |  |  |
| COc1ccc(NC(=O)c2sc3nc4c(cc3c2N)CCCCCC4)c(OC)c1 | 109 | 110 | 119 |  |  |  |  |
| Nc1c(C(=O)Nc2cccc3ccccc23)sc2nc3c(cc12)CCC3 | 92 | 67 | 80 |  |  |  |  |
| Cc1cccc(NC(=O)c2sc3nc4c(cc3c2N)CCCCCC4)c1C | 6 | 4 | 3 | 183 | 83 | 170 | 83 |
| Nc1c(C(=O)Nc2cccc(Cl)c2)sc2nc3c(cc12)CCC3 | 87 | 53 | 92 |  |  |  |  |
| Cc1ccc(C)c(NC(=O)c2cc3cc4cc(C)ccc4nc3s2)c1 | 98 | 77 | 103 |  |  |  |  |
| Cc1ccc2cc3c(N)c(C(=O)Nc4ccccc4[N+](=O)[O-])sc3nc2c1 | 102 | 101 | 90 |  |  |  |  |
| Nc1c(C(=O)Nc2c(Cl)cccc2Cl)sc2nc3c(cc12)CCCC3 | 100 | 82 | 93 |  |  |  |  |
| Cc1c(Cl)cccc1NC(=O)c1sc2nc3c(cc2c1N)CCC3 | 3 | 4 | 11 | 218 | 546 | 593 | 197 |
| COc1ccc(NC(=O)c2sc3nc4c(cc3c2N)CCCC4)cc1 | 99 | 84 | 98 |  |  |  |  |
| COc1ccc(OC)c(NC(=O)c2sc3nc4c(cc3c2N)CCCCCC4)c1 | 107 | 94 | 131 |  |  |  |  |
| Nc1c(C(=O)Nc2cccc([N+](=O)[O-])c2)sc2nc3c(cc12)CCCC3 | 75 | 44 | 71 |  |  |  |  |
| COc1ccc(NC(=O)c2sc3nc4c(cc3c2N)CCCCCC4)cc1OC | 106 | 107 | 102 |  |  |  |  |
| Cc1ccc2cc3cc(C(=O)Nc4cnc5ccccc5c4)sc3nc2c1 | 99 | 87 | 97 |  |  |  |  |
| Cc1ccccc1NC(=O)c1sc2nc3c(cc2c1N)CCCCC3 | 66 | 25 | 43 |  |  |  |  |
| Nc1c(C(=O)Nc2ccc3ccccc3c2)sc2nc3c(cc12)CCC3 | 94 | 64 | 81 |  |  |  |  |

| Compound | growth at 1 µM [1] [%] | growth at 1 µM (MDA-MB-468 [2]) [%] | growth at 1 µM (MDA-MB-231 [3]) [%] | IC50 [4] [nM] | IC50 (MDA-MB-468 [5]) [nM] | IC50 (MDA-MB-231 [6]) [nM] | IC50 (K562) [nM] |
| --- | --- | --- | --- | --- | --- | --- | --- |
| CCc1cccc(NC(=O)c2sc3nc4c(cc3c2N)CC(CC)CC4)c1 (stereo unspecified) | 73 | 12 | 73 |  |  |  |  |
| Cc1ccccc1NC(=O)c1sc2nc3c(cc2c1N)CCCC3 | 84 | 53 | 70 |  |  |  |  |
| COc1ccc(NC(=O)c2sc3nc4ccccc4cc3c2N)cc1 | 97 | 68 | 101 |  |  |  |  |
| Nc1c(C(=O)Nc2ccc(Cl)c(Cl)c2)sc2nc3c(cc12)CCCCC3 | 103 | 77 | 115 |  |  |  |  |
| Cc1cccc(NC(=O)c2cc3cc4cc(C)ccc4nc3s2)c1 | 100 | 84 | 105 |  |  |  |  |
| Nc1c(C(=O)Nc2cccc(Cl)c2)sc2nc3c(cc12)CCCCC3 | 86 | 39 | 95 |  |  |  |  |
| COc1ccc(OC)c(NC(=O)c2sc3nc4c(cc3c2N)CCCCC4)c1 | 98 | 94 | 117 |  |  |  |  |
| COc1ccc(NC(=O)c2sc3nc4c(cc3c2N)CCCCC4)cc1OC | 98 | 77 | 114 |  |  |  |  |
| Nc1c(C(=O)Nc2ccccc2C(F)(F)F)sc2nc3c(cc12)CCCCC3 | 112 | 100 | 124 |  |  |  |  |
| Nc1c(C(=O)Nc2cccc(C(F)(F)F)c2)sc2nc3c(cc12)CCCCC3 | 108 | 92 | 94 |  |  |  |  |
| Nc1c(C(=O)Nc2cccc([N+](=O)[O-])c2)sc2nc3c(cc12)CCCCC3 | 51 | 18 | 67 |  |  |  |  |
| Nc1c(C(=O)Nc2cccc(Br)c2)sc2nc3c(cc12)CCCCC3 | 83 | 45 | 92 |  |  |  |  |
| Nc1c(C(=O)Nc2ccccc2Cl)sc2nc3c(c(C(F)(F)F)c12)CCCCCC3 | 112 | 100 | 116 |  |  |  |  |
| CCc1cccc(C)c1NC(=O)c1sc2nc3c(cc2c1N)CCCC3 | 96 | 67 | 84 |  |  |  |  |
| Nc1c(C(=O)Nc2cccc3ccccc23)sc2nc3c(cc12)CCCCC3 | 93 | 91 | 106 |  |  |  |  |
| Nc1c(C(=O)Nc2ccc3ccccc3c2)sc2nc3c(cc12)CCCCC3 | 103 | 97 | 118 |  |  |  |  |
| CCOc1ccc2nc3sc(C(=O)Nc4ccc(Cl)cc4)c(N)c3cc2c1 | 100 | 93 | 97 |  |  |  |  |
| Nc1c(C(=O)Nc2cccc(C(F)(F)F)c2)sc2nc3c(cc12)CCCC3 | 82 | 41 | 108 |  |  |  |  |
| Cc1cc(C)c(NC(=O)c2sc3nc4c(cc3c2N)CCCC4)c(C)c1 | 101 | 93 | 97 |  |  |  |  |
| Nc1c(C(=O)Nc2ccc(F)cc2)sc2nc3c(cc12)CCCCCC3 | 82 | 65 | 100 |  |  |  |  |
| CCCCOc1cccc(NC(=O)c2sc3nc4c(cc3c2N)CCCCC4)c1 | 97 | 53 | 100 |  |  |  |  |

| Compound | growth at 1 µM [1] [%] | growth at 1 µM (MDA-MB-468 [2]) [%] | growth at 1 µM (MDA-MB-231 [3]) [%] | IC50 [4] [nM] | IC50 (MDA-MB-468 [5]) [nM] | IC50 (MDA-MB-231 [6]) [nM] | IC50 (K562) [nM] |
| --- | --- | --- | --- | --- | --- | --- | --- |
| COc1ccc(NC(=O)c2sc3nc4c(cc3c2N)CCCCCC4)cc1 | 106 | 84 | 107 |  |  |  |  |
| Cc1cc(C)c(NC(=O)c2sc3nc4c(cc3c2N)CCCCC4)c(C)c1 | 99 | 89 | 98 |  |  |  |  |
| Cc1ccc2nc3sc(C(=O)Nc4cccc(F)c4)cc3cc2c1 | 98 | 91 | 103 |  |  |  |  |
| CCOc1ccc2nc3sc(C(=O)Nc4ccc(C(C)=O)cc4)c(N)c3cc2c1 | 96 | 87 | 97 |  |  |  |  |
| Nc1c(C(=O)Nc2cccc(Br)c2)sc2nc3c(cc12)CCCC3 | 85 | 45 | 101 |  |  |  |  |
| Nc1c(C(=O)Nc2cc(C(F)(F)F)ccc2Cl)sc2nc3c(cc12)CCCCC3 | 98 | 106 | 105 |  |  |  |  |
| Nc1c(C(=O)Nc2cccc([N+](=O)[O-])c2)sc2nc3c(cc12)CCC3 | 79 | 46 | 79 |  |  |  |  |
| Cc1ccc2nc3sc(C(=O)Nc4ccccc4)cc3cc2c1 | 95 | 81 | 92 |  |  |  |  |
| Nc1c(C(=O)Nc2ccc(Cl)cc2)sc2nc3c(cc12)CCCCCC3 | 94 | 82 | 117 |  |  |  |  |
| Nc1c(C(=O)Nc2ccccc2C(F)(F)F)sc2nc3c(cc12)CCCC3 | 104 | 93 | 128 |  |  |  |  |
| Nc1c(C(=O)Nc2ccccc2)sc2nc3c(cc12)CCC3 | 94 | 76 | 90 |  |  |  |  |
| Cc1ccc2nc3sc(C(=O)Nc4cccnc4)cc3cc2c1 | 102 | 101 | 81 |  |  |  |  |
| CC(=O)c1cccc(NC(=O)c2sc3nc4c(cc3c2N)CCCCCC4)c1 | 85 | 72 | 117 |  |  |  |  |
| Nc1c(C(=O)Nc2cccc(C(F)(F)F)c2)sc2nc3c(cc12)CCC3 | 90 | 58 | 100 |  |  |  |  |
| CCc1ccccc1NC(=O)c1sc2nc3c(cc2c1N)CCCC3 | 86 | 63 | 89 |  |  |  |  |
| CCc1cccc(CC)c1NC(=O)c1sc2nc3c(cc2c1N)CCCC3 | 108 | 116 | 115 |  |  |  |  |
| Nc1c(C(=O)Nc2ccccc2Cl)sc2nc3c(cc12)CCCCC3 | 92 | 73 | 89 |  |  |  |  |
| Cc1ccc2nc3sc(C(=O)Nc4ccccc4C)cc3cc2c1 | 99 | 89 | 104 |  |  |  |  |
| Nc1c(C(=O)Nc2ccccc2)sc2nc3c(c(-c4ccco4)c12)CCCCC3 | 65 | 71 | 89 |  |  |  |  |
